Experimental data taken from the supplement of paper PMC10307832.

What was measured:
Assay in all cases: relative viability (nuclei count vs DMSO), 5 days (fraction); higher = more cells survive
[1] = compound: CC1=CC(=NN1)NC2=CC(=NC(=N2)/C=C/C3=CC=CC=C3)N4CCN(CC4)C + NC(=O)Nc1cc(-c2cccc(F)c2)sc1C(=O)N[C@H]1CCCNC1 [AZD7762] (partner 0.2 µM)
Procedure, shortened: (§1)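 Values are medians from duplicate plates. Each reflects relative viability, defined as the nuclei count of treated wells over that of vehicle wells. Lung cancer cell lines in 1536-well plates were pin-tool dosed one day after seeding with one drug alone or with a fixed anchor-drug dose plus five library-drug doses (not always all listed) in √10 steps, then fixed, stained and imaged at 4× after 5 days.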

[2] = compound: CC1=CC(=NN1)NC2=CC(=NC(=N2)/C=C/C3=CC=CC=C3)N4CCN(CC4)C + CC(=O)c1c(C)c2cnc(Nc3ccc(N4CCNCC4)cn3)nc2n(C2CCCC2)c1=O [Palbociclib] (partner 0.5 µM)
Procedure, shortened: as §1

[3] = compound: CC1=CC(=NN1)NC2=CC(=NC(=N2)/C=C/C3=CC=CC=C3)N4CCN(CC4)C + Nc1ncn([C@H]2C[C@H](O)[C@@H](CO)O2)c(=O)n1 [Decitabine] (partner 2 µM)
Procedure, shortened: as §1

[4] = compound: COC1=CC(c2cc3ccccc3[nH]2)=N/C1=C\c1[nH]c(C)cc1C [Obatoclax] + Nc1ncn([C@H]2C[C@H](O)[C@@H](CO)O2)c(=O)n1 [Decitabine] (partner 2 µM)
Procedure, shortened: as §1

Q: With NCI-H2085 as the cell line, how does the relative viability ([1]; first compound 0.08 µM) read?
A: 0.95

Q: And the relative viability ([1]; first compound 0.253 µM)?
A: 1.09

Q: And the relative viability ([1]; first compound 0.8 µM)?
A: 0.882

Q: What about the relative viability ([1]; first compound 2.53 µM) of the same cell line?
A: 0.272

Q: And the relative viability ([1]; first compound 8 µM)?
A: 0.186

Q: And the relative viability ([2]; first compound 0.08 µM)?
A: 0.473

Q: And the relative viability ([2]; first compound 0.253 µM)?
A: 0.463

Q: And the relative viability ([2]; first compound 0.8 µM)?
A: 0.459

Q: And the relative viability ([2]; first compound 2.53 µM)?
A: 0.345

Q: What about the relative viability ([2]; first compound 8 µM) of the same cell line?
A: 0.266

Q: What about the relative viability ([3]; first compound 0.08 µM) of the same cell line?
A: 0.541

Q: And the relative viability ([3]; first compound 0.253 µM)?
A: 0.507

Q: What about the relative viability ([3]; first compound 0.8 µM) of the same cell line?
A: 0.56

Q: And the relative viability ([3]; first compound 2.53 µM)?
A: 0.336

Q: And the relative viability ([3]; first compound 8 µM)?
A: 0.298

Q: And the relative viability ([4]; first compound 0.01 µM)?
A: 0.531

Q: And the relative viability ([4]; first compound 0.03162 µM)?
A: 0.484

Q: What about the relative viability ([4]; first compound 0.1 µM) of the same cell line?
A: 0.524

Q: What about the relative viability ([4]; first compound 0.3162 µM) of the same cell line?
A: 0.499

Q: What about the relative viability ([4]; first compound 1 µM) of the same cell line?
A: 0.472

Q: With NCI-H2087 as the cell line, how does the relative viability ([1]; first compound 0.08 µM) read?
A: 1.27

Q: And the relative viability ([1]; first compound 0.253 µM)?
A: 1.4

Q: And the relative viability ([1]; first compound 0.8 µM)?
A: 1.39

Q: What about the relative viability ([1]; first compound 2.53 µM) of the same cell line?
A: 0.703

Q: And the relative viability ([1]; first compound 8 µM)?
A: 0.176

Q: What about the relative viability ([2]; first compound 0.08 µM) of the same cell line?
A: 0.213

Q: What about the relative viability ([2]; first compound 0.253 µM) of the same cell line?
A: 0.17

Q: What about the relative viability ([2]; first compound 0.8 µM) of the same cell line?
A: 0.236

Q: And the relative viability ([2]; first compound 2.53 µM)?
A: 0.164

Q: And the relative viability ([2]; first compound 8 µM)?
A: 0.123

Q: And the relative viability ([3]; first compound 0.08 µM)?
A: 0.294

Q: And the relative viability ([3]; first compound 0.253 µM)?
A: 0.193

Q: What about the relative viability ([3]; first compound 0.8 µM) of the same cell line?
A: 0.265

Q: And the relative viability ([3]; first compound 2.53 µM)?
A: 0.0921

Q: What about the relative viability ([3]; first compound 8 µM) of the same cell line?
A: 0.0912

Q: What about the relative viability ([4]; first compound 0.01 µM) of the same cell line?
A: 0.215

Q: And the relative viability ([4]; first compound 0.03162 µM)?
A: 0.254

Q: What about the relative viability ([4]; first compound 0.1 µM) of the same cell line?
A: 0.34

Q: What about the relative viability ([4]; first compound 0.3162 µM) of the same cell line?
A: 0.135

Q: And the relative viability ([4]; first compound 1 µM)?
A: 0.142

Q: HCC-366 was tested. Which relative viability ([1]; first compound 0.08 µM) did it give?
A: 0.247

Q: And the relative viability ([1]; first compound 0.253 µM)?
A: 0.302

Q: What about the relative viability ([1]; first compound 0.8 µM) of the same cell line?
A: 0.245

Q: What about the relative viability ([1]; first compound 2.53 µM) of the same cell line?
A: 0.0242

Q: And the relative viability ([1]; first compound 8 µM)?
A: 0.0179

Q: What about the relative viability ([2]; first compound 0.08 µM) of the same cell line?
A: 0.414

Q: What about the relative viability ([2]; first compound 0.253 µM) of the same cell line?
A: 0.368

Q: What about the relative viability ([2]; first compound 0.8 µM) of the same cell line?
A: 0.344

Q: And the relative viability ([2]; first compound 2.53 µM)?
A: 0.0349

Q: What about the relative viability ([2]; first compound 8 µM) of the same cell line?
A: 0.019

Q: What about the relative viability ([3]; first compound 0.08 µM) of the same cell line?
A: 0.35

Q: What about the relative viability ([3]; first compound 0.253 µM) of the same cell line?
A: 0.368

Q: And the relative viability ([3]; first compound 0.8 µM)?
A: 0.318

Q: And the relative viability ([3]; first compound 2.53 µM)?
A: 0.0513

Q: What about the relative viability ([3]; first compound 8 µM) of the same cell line?
A: 0.0463

Q: And the relative viability ([4]; first compound 0.01 µM)?
A: 0.318

Q: And the relative viability ([4]; first compound 0.03162 µM)?
A: 0.271

Q: What about the relative viability ([4]; first compound 0.1 µM) of the same cell line?
A: 0.306

Q: What about the relative viability ([4]; first compound 0.3162 µM) of the same cell line?
A: 0.347

Q: And the relative viability ([4]; first compound 1 µM)?
A: 0.274
